# Reference: the pKa sets of Baltruschat and Czodrowski (2020)
# Where a SMILES comes first, the peptide text is derived from it.
# Conditions: acidic group
row,SMILES,pKa
1,CC(=O)CC(=O)c1ccccc1,8.69
2,O=C(O)C12CCC(C1)C2,3.96
3,CCOc1ccc(C(=O)NC(=S)N(CC)CC)cc1,8.83
4,O=C(O)C1(O)CCCC1,4.11
5,O=C(O)c1ccc[se]1,3.43
6,O=C(O)CCCOC(=O)CCCBr,4.6
7,N#CS,0.85
8,Cc1ccc2c(c1)C([P+](c1ccccc1)(c1ccccc1)c1ccccc1)c1ccccc1-2 (centres undefined),9.38
9,NC(=O)[C@H]1CC(=O)N[C@@H]1C(=O)O,3
10,O=S1(=O)N=C[N-]c2nc[nH]c21,11
11,C[NH+](C)Cc1cc(F)cc(C[NH+](C)C)c1O,5.77
12,Cc1c(I)cccc1C(=O)O,3.26
13,Cc1ccc(NC(=S)c2ccccc2)cc1,10.8
14,C[C@H]([NH3+])CCC(=O)O,4.13
15,N#CC(C#N)=C(c1ccccc1)C(C#N)C#N,2.3
16,O=C(C1=C(O)C(=O)c2ccccc2C1=O)c1ccccc1,2.17
17,O[n+]1ccc(OCc2ccccc2)cc1,1.99
18,C[N+](C)(C)/N=C(/O)c1ccccc1,4.29
19,NC(=S)Nc1ccc(Cl)cc1,12.3
20,[NH3+]c1cccc(O[C@H]2O[C@@H](C(=O)O)[C@H](O)[C@@H](O)[C@@H]2O)c1,2.97
21,CC(=O)NS(=O)(=O)c1ccc(N)cc1,5.35
22,O=C1C=C(S(=O)(=O)[O-])c2[nH]ncc2/C1=N/O,7.75
23,CC(=O)C(C)[N+](=O)[O-] (centres undefined),5.15
24,Oc1cc(Br)cc(Br)c1,8.01
25,C[n+]1ccccc1/C=C/c1ccc(O)cc1,8.4

row,SMILES,pKa
1,Nc1[nH+]c2nc[nH]c2c(N)[n+]1O,1
2,O=C(O)CCc1c[nH]c2ccccc12,4.87
3,[S-]c1ccncc1,8.83
4,CC1(C)C(=O)CC(=O)CC1=O,4.2
5,O=C(O)CSCCc1ccccc1,3.8
6,S=CNCc1ccccc1,12.3
7,COC(=O)c1ccc(O)cc1,8.34
8,O=C(O)c1cc[nH]n1,3.84
9,C[S+](C)c1ccc(O)cc1,7.31
10,N#CC(CCC(=O)O)c1ccccc1 (centres undefined),4.4
11,O=C(O)c1cc2ccccc2[nH]1,3.79
12,O=C(C[n+]1cccc2c3ccccc3ccc21)c1ccccc1,11.3
13,Cc1c(Br)cccc1C(=O)O,3.36
14,CCN(CC)C(=S)NC(=O)c1cccc(C)c1,8.36
15,CN(C)c1cccc[n+]1O,2.27
16,CC/C=C/C(=O)O,4.69
17,Cc1ccc(OCC(=O)O)cc1,3.15
18,CCc1cc(Cl)c(O)c(C(=O)NC[C@H]2CCC[NH+]2CC)c1OC,6.91
19,CC/C(C)=C/C(=O)O,5.14
20,O=S(=O)(Nc1ccc(Cl)cc1)C(F)(F)F,3.9
21,COc1cccc(S(N)(=O)=O)c1,9.39
22,Cn1c(=O)[nH]c2c(ncn2C)c1=O,6.3
23,[NH3+]CC(=O)O,2.36
24,O=C1Cc2c1ccc(O)c2[N+](=O)[O-],3.98
25,C[Si](C)(CCCCl)CCCC(=O)O,4.98

row,SMILES,pKa
1,O=C([O-])CC(=O)/C=N/O,8.7
2,CC1CC(C)C(=O)CC1=O (centres undefined),5.62
3,C#CCO,13.3
4,O=[PH]([O-])C(NCc1cccnc1)c1ccccc1O (centres undefined),12
5,Brc1nnn[nH]1,2.13
6,CCCc1cc(Cl)cc(Cl)c1O,8.1
7,CC(O)[C@@H]1C[NH2+][C@H](C(=O)[O-])[C@H]1CC(=O)O (some centres undefined),4.35
8,Cc1cccc([Se]CC(=O)O)c1,3.78
9,CC(C)C1=CC2=CC[C@H]3[C@@](C)(CCC[C@]3(C)C(=O)O)[C@@H]2CC1,6.4
10,O=C(O)c1ccc(O)cc1,4.57
11,O=C(O)[C@H]1[C@@H]2C=C[C@H]1CC2,4.58
12,COc1ncnc2nc[nH]c12,9.16
13,COc1ccc(C(=S)Nc2ccc(Cl)cc2)cc1,10.9
14,CSc1ncc2[nH]cnc2n1,8.91
15,CC(=O)c1ccc([N+](=O)[O-])cc1C(=O)O,3.27
16,O=[N+]([O-])c1n[nH]c(-n2cnc(Br)n2)n1,1.63
17,Oc1ccc2cnccc2c1,9.15
18,O=C(O)Cc1cccs1,3.85
19,O=[N+]([O-])CCO,9.4
20,Oc1cnc2ccccc2[nH+]1,-1.37
21,[NH3+]C/C=C/C(=O)O,3.55
22,O=C(O)C1=C(CO)CCC1,4.54
23,CC(C)(C)c1ccc(-c2c(O)c2=O)cc1,2.21
24,CC(C)c1ccc(C(=O)O)cc1,4.31
25,Cc1ccc2c(c1O)-c1c-2ccc(C)c1O,8.04

# Same assay, conditions: basic group
row,SMILES,pKa
1,OC(CN1CCCC1)C[NH+]1CCCC1,7.75
2,[O-]c1[nH+]ccc2c1cnc1ccccc12,4.1
3,Cc1nnc(C)c(C)n1,2.85
4,C#C[C@]1(O)C[C@H](C)N(C)[C@@H]2CCCC[C@H]21,9.22
5,CCN(CC)CC(=O)Nc1ccc([N+](=O)[O-])cc1,8.05
6,COC(=O)C(N)Cc1c[nH]cn1 (centres undefined),7.35
7,CCCNCC[NH2+]CCC,7.53
8,Nc1cccc2cnccc12,5.59
9,CC1NCCCN1,9.09
10,CCNCl,0.93
11,CN(C)CCCCC(=O)Oc1ccc([N+](=O)[O-])cc1,9.9
12,c1ccc(C2CN2)cc1 (centres undefined),6.47
13,Cc1cccc(/N=C/N(C)C)c1,9.11
14,CCCCNC,10.8
15,CC(C)(CN)CN,10.2
16,C=C(C)C(=O)NCCN(CC)CC,9.37
17,Cn1ccc(=N)c2ccccc21,12.4
18,Cn1c(=S)ccc2ccccc21,-1.6
19,CNc1c(C)cccc1C,6.12
20,COCCc1nc(C)c[nH]1,8.13
21,c1c(CN2CCNCCNCC2)n[nH]c1CN1CCNCCNCC1,11.2
22,CC(=O)NS(=O)(=O)c1ccc(N)cc1,1.58
23,c1cncc(-c2[nH]c3ccccc3[nH+]2)c1,1.56
24,CSc1ccc2ncccc2c1,4.75

row,SMILES,pKa
1,CC(C)Cc1ccc(O)c(CN(C)C)c1,8.51
2,[O-]c1ccc([O-])nn1,13
3,Nc1ccc2c(N)c3ccccc3nc2c1,11.5
4,COc1ccc2c3c1O[C@H]1CCC[C@H]4[C@@H](C2)N(C)CC[C@]314,8.83
5,NC1CCN(Cc2ccccc2)CC1,9.79
6,NCC(=O)N[C@@H](Cc1c[nH]cn1)C(=O)[O-] (H-Gly-His-OH),8.14
7,O=C(Cc1ccccc1)C(CN1CCOCC1)c1ccccc1 (centres undefined),6.17
8,Cc1cc(C(c2ccc(N)cc2)c2ccc(N)cc2)ccc1N,4.9
9,CCCCCNCc1ccc(C)cc1,10.1
10,CC(C)CN[C@H](c1ccccc1)[C@H](O)c1ccccc1,11.3
11,c1c[nH]c(P(c2ncc[nH]2)c2[nH]cc[nH+]2)n1,6.59
12,Nc1ccc2[nH]c[nH+]c2c1,3.07
13,CCOCCNc1ccc(OC)cc1,4.99
14,CN1C[C@H](C(=O)[O-])C[C@@]2(O)c3cccc4[nH]cc(c34)C[C@H]12,9.17
15,NCCCCNCCCN,10.6
16,COc1cccc2c1CN(C1CC3CCC(C1)N3Cc1ccccc1)C2=O (centres undefined),8.68
17,CNCC(O)CO (centres undefined),9.55
18,Cc1cc(N)c2ccccc2n1,9.44
19,N[C@@H](CC(=O)[O-])C(=O)[O-],9.54
20,O=C([O-])c1cnc2ccccc2c1,4.68
21,CCC(CO)NCl (centres undefined),1.55
22,COC(=O)[C@H](Cc1c[nH]cn1)NC(C)=O,6.3
23,O=C(O)c1cc2ccccc2[nH]1,-0.57
24,CN1CCCN(C)c2cccc3cccc1c23,10.3

row,SMILES,pKa
1,CC(C)[C@H](N)C(=O)[O-],9.66
2,NCCC(=O)NC(Cc1c[nH]cn1)C(=O)[O-] (centres undefined),9.48
3,NNC(=O)C[NH3+],2.38
4,Nc1ccnc(-c2cc(N)ccn2)c1,8.8
5,C=CC(C)(C)NC(C)(C)CC,10.8
6,O=C([O-])[C@@H]1CCCN1C(=O)[C@@H]1CCCN1 (H-Pro-Pro-OH),9.27
7,NC1(C(=O)[O-])CCCCC1,10
8,COc1ccc(C2CCC[NH+]2C)cn1 (centres undefined),1.34
9,OCCc1cnc(P(c2ncc(CCO)[nH]2)c2[nH]c(CCO)c[nH+]2)[nH]1,6.84
10,[O-]c1ncnc2[nH]cnc12,8.71
11,CCOC(=O)C[C@H](N)c1ccccc1,8.32
12,CC(=O)c1ccc(N)cc1,2.27
13,C[Si](C)(C)CCCN,10.8
14,O=[PH]([O-])C(NCc1cccnc1)c1ccccc1O (centres undefined),8.05
15,c1c(CN2CC[NH2+]CC[NH2+]CC2)n[nH]c1CN1CCNCC[NH2+]CC1,6.08
16,CCN(CC)CCC(C)=O,9.25
17,COc1ccc(CN)c([N+](=O)[O-])c1,8.77
18,CC(C)S(=O)(=O)n1c(N)nc2ccc(/C(=C/C(N)=O)c3cccc(F)c3)cc21,3.41
19,C[n+]1c([S-])nc([O-])c2ccccc21,9.23
20,COc1ncnc2nc[nH]c12,2.21
21,c1cnc2c(c1)c1c(c3cccnc32)CCCC1,5.3
22,CCCCCCN(CC(C)O)CC(C)O (centres undefined),8.5
23,CSc1ncc2[nH]cnc2n1,1.91
24,Clc1ccccn1,0.72

row,SMILES,pKa
1,[O-]c1cc[n+]([C@H]2O[C@@H](CO)[C@H](O)[C@H]2O)c([O-])n1,9.3
2,CNc1ccnc([S-])n1,11.1
3,Oc1ccc2cnccc2c1,5.85
4,COC(=O)[C@@H]([NH3+])Cc1c[nH]cn1,5.38
5,Cc1ccnc(NS(=O)(=O)c2ccccc2)n1,0.59
6,O=C([O-])c1ccncc1,4.9
7,CCCCNc1cc[nH+]c([O-])n1,4.69
8,NCC[n+]1ccc2c([N+](=O)[O-])cccc2c1,6.65
9,OCc1cc(-c2ccccc2)nnc1NCC[NH+]1CCOCC1,3.81
10,C/N=C(/NC)N(C)C,13.9
11,CCCNC(=O)[C@H](Cc1c[nH]cn1)NC(=O)c1cccc(CNCC[NH3+])n1,6.5
12,CC1CNCC[NH2+]1 (centres undefined),5.46
13,[NH3+]CCCCc1ccccn1,5.56
14,NC(=O)C[C@H](NC(=O)[C@@H](N)CS)C(=O)O (H-Cys-Asn-OH),7.05
15,Cc1ccccc1NC(=N)Nc1ccccc1C,9.67
16,OCCCCCc1cccnc1,5.72
17,O=C([O-])c1nc[nH]c1C(=O)[O-],8.49
18,[NH3+][C@@H](Cc1c[nH]cn1)C(=O)NCC(=O)[O-],5.8
19,C#CC(C)(C)N(C)C(C)(C)C#C,6.65
20,CCCCNCC(=O)[O-],10.2
21,CN1C[C@H](C(=O)[O-])C[C@@H]2c3cccc4[nH]cc(c34)C[C@@H]21,8.57
22,Cc1c[nH]c(C)c1,2.04
